Like-named read-outs stand apart in the source and are kept apart here.
Assays:
clinical = conditions: human, in vivo; for CL/F / bioavailability / Tmax / half-life: both; for bioavailability: F % (fraction bioavailable)
Method: The open-label preliminary study of the effects and pharmacokinetics of the prototype composition was conducted with six male and six female healthy, water loaded, non-smoking volunteer subjects, following the protocol described generally below. In summary, each subject was dosed up to four times over a period of one week with dosing administered every other day. […] All subjects were screened prior to the first treatment, including evaluations of medical history, complete physical exam including nasopharyngeal exam, serum chemistry including serum osmolality, urinalysis including urine osmolality.
On day one all subjects were asked to have his/her morning void prior to breakfast, and thereafter subjects started the water loading process. […] To achieve a steady state diuresis, the subjects were directed to drink a volume of water corresponding to at least 1.5% and up to 3% of body weight. The water loading process started about two hours prior to the dosing of the first subject. Subjects were asked to void every 20 minutes. To ensure continuous water loaded state, the subjects replaced their urinary output loss with an equivalent amount of fluid. Insensible loss was not measured or replaced. When the urinary output rate exceeded 10 ml/min in two consecutive measurements (defined as water loaded state) in the subjects, dosing began. Subjects were maintained in the water loaded state with equivalent fluid intake versus fluid loss.
Blood sampling for pharmacokinetic determinations was performed at 1, 1.5, 2, 3, 4 and 6 hours post dose. Two seven ml blood samples were collected at each time point. […] 3.2 (Pharsight Corporation, USA). A plasma concentration value below the limit of quantitation (“LOQ”) followed by values above the limit was set at ‘LOQ/2’ for the analysis and for the descriptive statistics on concentrations. Values below LOQ not followed by values above the LOQ were excluded from the analysis, and set to zero in the descriptive statistics on concentrations.
(§1) Other than the dose level, all procedures were the same as those described for day one.
as §1
Other than the dosing paradigm, all procedures were the same as described on day one.
Assay values below the level of detection that occurred between two non-zero concentrations were considered to be “missing” for purposes of calculating the AUC. […] Accordingly, an average terminal half-life (Avg T1/2) was calculated for each subject that included a treatment with evaluable half-lives in that subject. […] The AUC could be calculated for each treatment and subject using the calculated average T1/2 value.
The AUCall is the AUC calculated using the trapezoidal rule that assumes that the concentration declines to 0.00 at the next sample collection time following the last quantifiable concentration. In the cases where concentrations had not declined to below the limit of detection by the time of the last scheduled sample, AUCall was the same as AUCtlqc.
The AUCtlqc is the AUC as calculated to the Time of the Last Quantifiable Concentration. This value is extrapolated using the ratio of the last quantifiable concentration and the terminal elimination rate to give the AUC∞. Therefore AUC∞ is always larger than the AUCtlqc. AUCall will also always be equal to or greater than AUCtlqc, but may be larger or smaller than AUC∞.

[1] = in vivo, cited from earlier work

## NC(=O)CC[C@@H]1NC(=O)[C@H](Cc2ccccc2)NC(=O)[C@H](Cc2ccc(O)cc2)NC(=O)CCSSC[C@@H](C(=O)N2CCC[C@H]2C(=O)N[C@H](CCCN=C(N)N)C(=O)NCC(N)=O)NC(=O)[C@H](CC(N)=O)NC1=O [desmopressin, 1-desamino-8-D-arginine vasopressin]
clinical
  CL/F: 383 mL/min
  bioavailability: ~55%
clinical; sc
  CL/F: 233 mL/min
  Tmax: 0.88 ± 0.349 h
  bioavailability: 100%
  AUC∞* (modified AUC∞ using average T1/2): 0.00785 ± 0.00421 ng·h/mL
clinical; sc, Avg T1/2
  half-life: 1.68 ± 0.66 h
clinical; sc, T1/2
  half-life: 2.09 ± 0.32 h
clinical; topical or ocular
  Tmax: 0.8 ± 0.406 h
  AUC∞* (modified AUC∞ using average T1/2): 0.00446 ± 0.00309 ng·h/mL
clinical; topical or ocular, Avg T1/2
  half-life: 1.2 ± 0.42 h
clinical; topical or ocular, T1/2
  half-life: 1.39 ± 0.61 h
[1]; human, inhaled or intranasal
  bioavailability: 3-5%
[1]; human
  half life: ≥ 1.5 h
[1]; inhaled or intranasal, 20 ug
  range of Cmax: 6-10 fold
[1]; po
  bioavailability: far less than one percent

Reference: patent US20100160214A1 (SERENITY PHARMACEUTICALS CORPORATION, priority 2008, published 2010)
